Measurements published in patent US5366726A (priority 1992, dated 1994).
Entries after “also recorded” stand apart in the source; their conditions may differ.

What was measured:
Pneumocystis carinii [1] = assay: Example 1: treatment of P. carinii pneumonia, inhaled vs intravenous pentamidine; format: in vivo, human
Pneumocystis carinii [2] = format: in vivo, human
Description: The initial diagnosis of P. carinii pneumonia was based on finding the organism in induced sputum or bronchoalveolar lavage specimens.
Treatment was as described in Example 3.
Chest radiographs and arterial blood gas tensions were obtained as clinically indicated.

Pneumocystis carinii [3] = assay: Example 8: randomized clinical trial, prevention of PCP; format: in vivo, human
[4] = cited from earlier work
[5] = all strata, eligible, PCP within 60 days, 30 mg
[6] = all strata, eligible, confirmed PCP within 60 days, 30 mg
[7] = prior PCP strata, eligible, PCP within 60 days, 30 mg
[8] = prior PCP strata, eligible, PCP within 60 days, 150 mg
[9] = prior PCP strata, eligible, PCP within 60 days, 300 mg
[10] = prior PCP strata, eligible, confirmed PCP within 60 days, 30 mg
[11] = prior PCP strata, eligible, confirmed PCP within 60 days, 150 mg
[12] = prior PCP strata, eligible, confirmed PCP within 60 days, 300 mg

N=C(N)c1ccc(OCCCCCOc2ccc(C(=N)N)cc2)cc1 [pentamidine, p,p'-(pentamethylenedioxy)dibenzamidine]
successfully treated patients with relapses (Pneumocystis carinii [1]; inhaled): three of ten | Outcome of therapy (Pneumocystis carinii [1]; inhaled, 4 mg/Kg, UltraVent, single patients): success; also recorded: failed | patients readmitted and treated for P. carinii pneumonia after discharge (Pneumocystis carinii [1]; inhaled, at one, three and two months): Three | Time to discharge, all patients in group (Pneumocystis carinii [1]; inhaled, based on 9 successful patients): 15 ± 1 days | patients with satisfactory outcome (Pneumocystis carinii [1]; inhaled, of the remaining ten evaluated patients): nine | recurrence of PCP at follow-up (Pneumocystis carinii [1]; inhaled, remaining six, one to nine months following discharge): no recurrence of PCP | Time to discharge (Pneumocystis carinii [1]; inhaled, single patients): 9 days | patients with satisfactory outcome (Pneumocystis carinii [1]; intravenous): Eight of nine | Outcome of therapy (Pneumocystis carinii [1]; intravenous, 3 mg/Kg, single patients): success; also recorded: failed | Time to discharge, all patients in group (Pneumocystis carinii [1]; intravenous, based on 8 successful patients): 14 ± 2 days | relapses at follow-up (Pneumocystis carinii [1]; intravenous, four patients, five to six months): no reported relapses | hypoxia, fever, dyspnea (Pneumocystis carinii [2]; 10 patients): none of the patients were hypoxic or febrile, all had improvement in dyspnea | completion of therapy (Pneumocystis carinii [2]; 10 patients, 4 to 17 days): All patients successfully completed therapy | chest radiographs (Pneumocystis carinii [2]; current or subsequent): roentrographic improvement of infiltrates | effectiveness vs 300 mg (Pneumocystis carinii [3]; 150 mg arm, compared with 30 mg arm, not statistically significant vs 300 mg): consistently less effective than 300 mg | time to PCP occurrence, Kaplan-Meier (Pneumocystis carinii [3]; 150 mg vs 30 mg): superior to the 30 mg arm but less so than the 300 mg arm | PCP episodes vs other arms (Pneumocystis carinii [3]; 300 mg arm): fewest PCP episodes | time to PCP occurrence, Kaplan-Meier (Pneumocystis carinii [3]; 300 mg every 4 weeks vs 30 mg every 2 weeks): consistently superior | hazard of PCP, Cox model (Pneumocystis carinii [3]; 300 mg group): significantly lower hazard of PCP | PCP episodes documented during study (Pneumocystis carinii [3]; all arms): One hundred-one | PCP events not histologically confirmed (Pneumocystis carinii [3]; all arms): Twenty-five | completed the study without reaching a study endpoint (Pneumocystis carinii [3]; all arms): 26% | deaths due to PCP (Pneumocystis carinii [3]; all arms): Nineteen | p, log rank 30 mg vs. 300 mg (Pneumocystis carinii [3]; all strata, eligible, PCP within 60 days): .004 | No PCP (Pneumocystis carinii [3]; [5]): 89 | PCP (Pneumocystis carinii [3]; [5]): 28 | PCP (Pneumocystis carinii [3]; all strata, eligible, PCP within 60 days, 150 mg): 18 | PCP (Pneumocystis carinii [3]; all strata, eligible, PCP within 60 days, 300 mg): 16 | p, log rank 30 mg vs. 300 mg (Pneumocystis carinii [3]; all strata, eligible, confirmed PCP within 60 days): .0008 | No PCP (Pneumocystis carinii [3]; [6]): 95 | PCP (Pneumocystis carinii [3]; [6]): 22 | PCP (Pneumocystis carinii [3]; all strata, eligible, confirmed PCP within 60 days, 150 mg): 16 | PCP (Pneumocystis carinii [3]; all strata, eligible, confirmed PCP within 60 days, 300 mg): 8 | p, log rank 30 mg vs. 300 mg (Pneumocystis carinii [3]; all strata, intention to treat): .02 | PCP (Pneumocystis carinii [3]; all strata, intention to treat, all PCP, 30 mg): 41 | PCP (Pneumocystis carinii [3]; all strata, intention to treat, all PCP, 150 mg): 32 | PCP (Pneumocystis carinii [3]; all strata, intention to treat, all PCP, 300 mg): 28 | No PCP (Pneumocystis carinii [3]; all strata, intention to treat, 30 mg): 94 | Cox relative hazard of 30 mg, on study drugs events (Pneumocystis carinii [3]; for 150 mg): 1.7 | Cox relative hazard of 30 mg, on study drugs events (Pneumocystis carinii [3]; for 300 mg): 3.9 | all cause mortality between three treatment arms (Pneumocystis carinii [3]; human, in vivo): did not significantly differ | participants who developed PCP (Pneumocystis carinii [3]; initial CD4 counts greater than 200, no prior PCP): 5.1% | participants who developed PCP (Pneumocystis carinii [3]; initial CD4 counts less than 200, no prior PCP): 13% | p, log rank 30 mg vs. 300 mg (Pneumocystis carinii [3]; prior PCP strata, eligible, PCP within 60 days): .006 | No PCP (Pneumocystis carinii [3]; [7]): 42 | PCP (Pneumocystis carinii [3]; [7]): 25 | No PCP (Pneumocystis carinii [3]; [8]): 51 | PCP (Pneumocystis carinii [3]; [8]): 16 | No PCP (Pneumocystis carinii [3]; [9]): 60 | PCP (Pneumocystis carinii [3]; [9]): 14 | p, log rank 30 mg vs. 300 mg (Pneumocystis carinii [3]; prior PCP strata, eligible, confirmed PCP within 60 days): .002 | No PCP (Pneumocystis carinii [3]; [10]): 47 | PCP (Pneumocystis carinii [3]; [10]): 20 | No PCP (Pneumocystis carinii [3]; [11]): 53 | PCP (Pneumocystis carinii [3]; [11]): 14 | No PCP (Pneumocystis carinii [3]; [12]): 66 | PCP (Pneumocystis carinii [3]; [12]): 8 | p, log rank 30 mg vs. 300 mg (Pneumocystis carinii [3]; prior PCP strata, intention to treat): .02 | PCP (Pneumocystis carinii [3]; prior PCP strata, intention to treat, all PCP, 30 mg): 33 | PCP (Pneumocystis carinii [3]; prior PCP strata, intention to treat, all PCP, 150 mg): 24 | PCP (Pneumocystis carinii [3]; prior PCP strata, intention to treat, all PCP, 300 mg): 21 | No PCP (Pneumocystis carinii [3]; prior PCP strata, intention to treat, 30 mg): 46 | No PCP (Pneumocystis carinii [3]; prior PCP strata, intention to treat, 150 mg): 54 | No PCP (Pneumocystis carinii [3]; prior PCP strata, intention to treat, 300 mg): 59 | PCP episodes (Pneumocystis carinii [3]; prior PCP stratum, all arms): Seventy-eight | median time to PCP relapse (Pneumocystis carinii [3]; prophylaxis started within 3 months of prior episode): 240 days | hazard of PCP (Pneumocystis carinii [3]; therapy started within 3 months vs later): less than half the hazard of PCP | mild cough controlled by metaproterenol, patients (aerosol): 9 patients | severe coughing, patients (aerosol, all smokers): 3 patients | adverse systemic reactions (renal, liver, hematologic, hypoglycemia, hypotension) (in vivo): No adverse systemic reactions | air-way obstruction (in vivo): Neither clinical nor spirometric evidence of air-way obstruction occurred | clinical bronchospasm (in vivo): not seen | coughing with therapy, patients (in vivo): Twelve | Toxicity Req Change of Therapy (n = 15): 0(0) n (%) | less common adverse effects ([4]; human, in vivo): cardiac arrhythmias and pancreatitis | local reactions at site of intramuscular injection ([4]; intramuscular): Pain, swelling and sterile abscesses | generalized or local reactions, intravenous ([4]; intravenous): thrombophlebitis and generalized or localized urticarial eruptions | hypoglycemia ([4]; parenteral): Hypoglycemia has also been reported | impaired renal function ([4]; parenteral): about 25% | other common adverse reactions ([4]; parenteral): elevation of liver enzymes, hematologic disturbances with neutropenia and thrombocytopenia, fever, hypocalcemia, and hallucinations | hypotension ([4]; single intramuscular dose or rapid intravenous infusion): Severe hypotension
